From paper PMC9371267 (PLoS Biology, 2022)
Positions count from the first letter of the chain named.

Columns and labels:
Assay type in all cases: cell-based
[1] = molecular target: T1, GALR2 R274^7.35×34A mutant (Homo sapiens, UniProt O43603, R274A); assay: NanoBiT-based Gq activation assay, R274^7.35×34A; details: HEK293-A
T1 construct: expressed in transfected cells; host or cells: HEK293A
T1 sequence (O43603 1-387 R274A): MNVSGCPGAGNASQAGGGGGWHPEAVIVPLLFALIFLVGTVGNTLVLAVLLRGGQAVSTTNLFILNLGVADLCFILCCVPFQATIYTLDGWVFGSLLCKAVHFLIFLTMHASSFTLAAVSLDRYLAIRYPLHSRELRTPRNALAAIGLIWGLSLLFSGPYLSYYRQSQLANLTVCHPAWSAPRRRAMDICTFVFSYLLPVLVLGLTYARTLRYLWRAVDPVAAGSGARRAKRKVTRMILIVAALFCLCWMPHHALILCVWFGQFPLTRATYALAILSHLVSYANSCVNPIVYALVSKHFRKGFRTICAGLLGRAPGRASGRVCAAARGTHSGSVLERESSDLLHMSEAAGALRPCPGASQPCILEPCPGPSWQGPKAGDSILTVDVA
Experimental: (§1) After an incubation for 1 day, the transfected cells were harvested, pelleted with centrifugation, and suspended in 2 mL of Hank’s balanced saline solution containing 0.01% bovine serum albumin (BSA fatty acid–free grade, SERVA) and 5 mM HEPES (pH 7.4) (assay buffer). The cell suspension was dispensed in a white 96-well plate at a volume of 80 μl per well and mixed with 20 μl of 50 μM coelenterazine (custom-synthesized by Amadis Chemical) diluted in the assay buffer. After 2-h incubation at room temperature, the plate was measured for baseline luminescence (SpectraMax L, Molecular Devices). […] Kinetics data points from 5 min to 10 min were averaged and normalized to the initial count and used as a G-protein activation index. The G-protein activation signals were fitted to a 4-parameter sigmoidal concentration-response curve (GraphPad Prism8), and pEC50 values (negative logarithmic values of EC50 values) and Span values (“Top”–“Bottom”) were obtained. For individual experiments, we calculated Emax by normalizing Span to the WT GALR2 and ΔpEC50 by subtracting pEC50 of the WT GALR2 performed in parallel. We also calculated Emax/EC50 of GALR2 mutants relative to that of GALR2 WT, a dimensionless parameter known as relative intrinsic activity (RAi) and used its log-transformed value (Log RAi) to denote receptor activity.

GALR2 V174^ECL2A mutant = molecular target: T2, GALR2 V174^ECL2A mutant (Homo sapiens, UniProt O43603, V174A); assay: NanoBiT-based Gq activation assay, V174^ECL2A; details: HEK293-A; HEK293A; expression ~WT (1:5); normalized to WT (1:1); mean ± SEM, n = 3; ns p > 0.05 vs expression-matched WT
T2 construct: expressed in transfected cells; host or cells: HEK293A
T2 sequence (O43603 1-387 V174A): T1 sequence (O43603 1-387 R274A) with V174A, A274R
Experimental: as §1

GALR2 L266^ECL3A mutant = molecular target: T3, GALR2 L266^ECL3A mutant (Homo sapiens, UniProt O43603, L266A); assay: NanoBiT-based Gq activation assay, L266^ECL3A; details: HEK293-A; HEK293A; expression ~WT (1:1); normalized to WT (1:1); mean ± SEM, n = 3; ns p > 0.05 vs expression-matched WT
T3 construct: expressed in transfected cells; host or cells: HEK293A
T3 sequence (O43603 1-387 L266A): T1 sequence (O43603 1-387 R274A) with L266A, A274R
Experimental: as §1

GALR2 H102^3.29A mutant = molecular target: T4, GALR2 H102^3.29A mutant (Homo sapiens, UniProt O43603, H102A); assay: NanoBiT-based Gq activation assay, H102^3.29A; details: HEK293-A; HEK293A; expression ~WT (1:10); normalized to WT (1:1); mean ± SEM, n = 3; ** p < 0.01 vs expression-matched WT
T4 construct: expressed in transfected cells; host or cells: HEK293A
T4 sequence (O43603 1-387 H102A): T1 sequence (O43603 1-387 R274A) with H102A, A274R
Experimental: as §1

GALR2 F264^ECL3A mutant = molecular target: T5, GALR2 F264^ECL3A mutant (Homo sapiens, UniProt O43603, F264A); assay: NanoBiT-based Gq activation assay, F264^ECL3A; details: HEK293-A; HEK293A; expression ~WT (1:1); normalized to WT (1:1); mean ± SEM, n = 3; ns p > 0.05 vs expression-matched WT
T5 construct: expressed in transfected cells; host or cells: HEK293A
T5 sequence (O43603 1-387 F264A): T1 sequence (O43603 1-387 R274A) with F264A, A274R
Experimental: as §1

CC(C)C[C@H](NC(=O)CNC(=O)[C@H](CC(N)=O)NC(=O)[C@H](CCCCN)NC(=O)[C@H](CC(=O)O)NC(=O)[C@H](CO)NC(=O)[C@H](Cc1ccccc1)NC(=O)[C@H](CO)NC(=O)[C@H](CCCNC(=N)N)NC(=O)[C@H](Cc1c[nH]cn1)NC(=O)[C@H](CC(N)=O)NC(=O)CNC(=O)[C@@H](NC(=O)[C@H](C)NC(=O)[C@H](Cc1c[nH]cn1)NC(=O)[C@@H]1CCCN1C(=O)CNC(=O)[C@H](CC(C)C)NC(=O)[C@H](CC(C)C)NC(=O)[C@H](Cc1ccc(O)cc1)NC(=O)CNC(=O)[C@H](C)NC(=O)[C@H](CO)NC(=O)[C@H](CC(N)=O)NC(=O)[C@H](CC(C)C)NC(=O)[C@@H](NC(=O)[C@H](Cc1c[nH]c2ccccc12)NC(=O)CN)[C@@H](C)O)C(C)C)C(=O)N[C@H](C(=O)N[C@@H](CO)C(=O)O)[C@@H](C)O [galanin]
Emax [1]: 74.7 ± 5.9% | Emax (GALR2 V174^ECL2A mutant): 72.8 ± 11.3% | Emax (GALR2 L266^ECL3A mutant): 90.9 ± 10.5% | Emax (GALR2 H102^3.29A mutant): 17.4 ± 2.4% | Emax (GALR2 F264^ECL3A mutant): 90.3 ± 2.3%
